Like-named read-outs stand apart in the source and are kept apart here. One block for each compound: values may come before it. Peptide text beside a SMILES is read from it.
Experiments:
[1] = test system: SaOS cells; assay: cAMP production in SaOS cells, dose-response; assay type: cell-based
[2] = test system: MC3T3-E1 cells; assay: cAMP in MC3T3-E1 cells, dose-response; assay type: cell-based
Protocol: In the 1-30 scaffold, Gly, Ser, Leu, Asn, Gln, Trp, Glu, and Lys were substituted at position 29; Gly, Ser, Leu, Asn, Asp, Trp, and Lys were substituted at position 30; and Ser, Leu, Asn, Val, Trp, Glu, and Lys were substituted at position 31. […] These peptides were tested for cAMP activity in MC3T3-E1 cells.

[3] = biological target: T1, human PTHR, G protein-coupled conformation (RG) (Homo sapiens, UniProt Q03431); assay: Competition binding to RG conformation of hPTHR (COS-7 membranes, GαsND, 125I-[Aib1,3,M]PTH(1-15) tracer)
T1 construct: expressed in transfected cells; host or cells: COS-7, transient (Fugene-6); membranes
T1 sequence (Q03431 27-593): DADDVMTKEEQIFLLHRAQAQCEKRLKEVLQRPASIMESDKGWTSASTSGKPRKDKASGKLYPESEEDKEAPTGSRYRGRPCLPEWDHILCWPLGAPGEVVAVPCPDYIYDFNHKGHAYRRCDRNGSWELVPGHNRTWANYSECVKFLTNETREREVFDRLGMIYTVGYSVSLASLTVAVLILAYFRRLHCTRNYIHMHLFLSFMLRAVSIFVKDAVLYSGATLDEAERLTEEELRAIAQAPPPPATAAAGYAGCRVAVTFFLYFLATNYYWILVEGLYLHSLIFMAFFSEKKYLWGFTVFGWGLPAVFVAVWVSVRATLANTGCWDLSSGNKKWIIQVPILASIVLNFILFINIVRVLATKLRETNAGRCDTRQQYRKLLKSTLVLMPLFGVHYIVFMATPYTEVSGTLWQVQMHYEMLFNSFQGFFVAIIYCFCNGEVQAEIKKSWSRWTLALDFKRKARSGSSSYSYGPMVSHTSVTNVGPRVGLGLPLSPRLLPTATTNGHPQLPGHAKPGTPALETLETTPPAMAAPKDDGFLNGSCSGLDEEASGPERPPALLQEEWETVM

[4] = biological target: T2, human PTHR, G protein-uncoupled conformation (R^0) (Homo sapiens, UniProt Q03431); assay: Competition binding to R0 conformation of hPTHR (COS-7 membranes, GTPγS, 125I-PTH(1-34) tracer); conditions: for R0/RG selectivity: hPTHR
T2 construct: expressed in transfected cells; host or cells: COS-7, transient (Fugene-6)
T2 sequence (Q03431 27-593): T1 sequence (Q03431 27-593)
Summary of the method: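 Membranes from hPTHR-transfected COS-7 cells (20-100 μg/mL protein) incubated 90 min with radioligand (~150,000 cpm/ml) and unlabeled ligands, then filtered. Specific binding expressed as % of binding without competitor.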

[5] = test system: LLCPK1-B64 cells or SaOS-2 cells; assay: cAMP screen of substituted PTHrP(1-28) analogs (% parent); assay type: cell-based; conditions: parent PTHrP(1-28)NH
Summary of the method: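 LLCPK1-B64 or SaOS-2 cells exposed to peptide analogs at 3×10^−9M with IBMX for 30 minutes at room temperature, then cAMP measured. Each analog's response expressed as percentage of that for parent PTHrP(1-28).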

[6] = biological target: T3, human PTH1 receptor (Homo sapiens, UniProt Q03431); assay: cAMP signaling dose-response in HKRK-B7 cells; assay type: cell-based; conditions: 15 min, 37° C., IBMX
T3 construct: expressed in transfected cells
T3 sequence (Q03431 27-593): T1 sequence (Q03431 27-593)
Protocol: In the cAMP experiments of FIG. 14, HKRK-B7 were seeded in 96 well plates at 1×10^5 cells/well and incubated overnight. On the following day, the cells were washed once with […] of binding buffer (50 mM Tris-HCl, pH 7.7, 100 mM NaCl, 5 mM KCl, 2 mM CaCl2, 5% heat-inactivated horse serum, 0.5% heat-inactivated fetal bovine serum), followed by addition of 100 μl cAMP assay buffer (DMEM, 2 mM IBMX, 1 mg/ml bovine serum albumin, 35 mM Hepes-NaOH, pH 7.4) on ice. […] After removing the medium, the plates were placed on powdered dry ice to freeze the cells and then removed from dry ice. The cells were thawed with 50 μl of 50 mM HCl and frozen again on dry ice. The level of intracellular cAMP was measured with a commercially available cAMP EIA kit (Biotrack cAMP EIA system, GE Healthcare).
HKRK-B, which are LLC-PK1 cells over-expressing human PTH1 receptor at levels of 9.5×10^5 per cell were used in the cAMP signaling assay. The cells were cultured at 37° C. in a humidified atmosphere containing 5% CO2 in Dulbecco's modified Eagle's medium (DMEM), supplemented with 10% fetal bovine serum (Hyclone), 100 units/ml penicillin G, and 100 μg/ml streptomycin sulfate (Invitrogen Corp). […] All peptides were dissolved at 1 mM in 10 mM acetic acid, and stored at −80° C. The cAMP stimulation assay was performed as described above for HKRK-B7 cells. […] Cells were treated for 15 minutes at 37° C. with varying concentrations of ligands in the presence of IBMX.

[7] = Plasma cAMP in C57BL/6 mice after intravenous injection; assay type: in vivo; conditions: i.v. (Example 4)
[8] = Blood ionized calcium in C57BL/6 mice after intravenous injection; assay type: in vivo; conditions: 5 nmol/kg i.v.
Protocol: FIGS. 29A and 29B are graphs showing the effect of R^0 and RG selective PTH analogs on plasma cAMP and calcium in mice. FIGS. 29A and 29B show plasma cAMP concentrations in mice (C57BL/6, males, 3 months) that were administered either vehicle, rPTH(1-34) (SEQ ID NO:130), M-PTH(1-34) (M=A^1,Aib^3,Q^10,Har^11,A^12,W^14,R^19) (SEQ ID NO:12), or E^18,A^22,L^25,K^26-(EALK)-PTHrP(1-30) (SEQ ID NO:90) (5 nmol/kg; n=7 for cAMP, n=4 for calcium) intravenously. […] In the calcium experiment, blood was withdrawn before, and 1, 2, 4 and 6 hours after injection, and ionized calcium was measured using a Ca^++/pH analyzer.
We also characterized the effects of the EALK-PTHrP(1-30) peptide on cAMP production. Three month old male C57BL/6 mice were intravenously injected with either vehicle, rPTH(1-34), M-PTH(1-34) (M=A^1,Aib^3,Q^10,Har^11,A^12,W^14,R^19) or E^18,A^22,L^25,K^26-(EALK)-PTHrP(1-30) (5 nmol/kg). In the cAMP experiment (FIG. 29A), blood was withdrawn 10 minutes after injection and plasma level of cAMP was measured by RIA. In the calcium experiment (FIG. 29B), blood was withdrawn prior to injection and 1, 2, 4, and 6 hours after injection. Ionized calcium was measured using a Ca^++/pH analyzer.

[9] = Bone turnover markers (PINP, osteocalcin, CTX) in mice, daily treatment; assay type: in vivo; conditions: 5 nmol/kg i.v. daily, days 6 and 13
Protocol: FIGS. 30A-30F are graphs showing the effects of PTH analogs on plasma bone markers in mice. Mice (C57BL/6, males, 3 months) were intravenously injected daily with either vehicle, rPTH(1-34) (SEQ ID NO:130), M-PTH(1-34) (SEQ ID NO:12), or (EALK)-PTHrP(1-30) (SEQ ID NO:90) (5 nmol/kg; n=7 group) for 14 days. Markers of bone turnover (PINP, CTX and osteocalcin) were assessed by ELISA in blood at day 6 (FIGS. 30A, 30C, and 30E, respectively) and 13 (FIGS. 30B, 30D, and 30F, respectively).
A second set of experiments was performed in which mice received 5 nmol/kg intravenous daily treatment with rPTH(1-34), M-PTH(1-34), or EALK-PTHrP(1-30) for 14 days. Blood samples were taken at days 6 and 13, and markers of bone turnover (PINP, osteocalcin and CTX) were assessed by ELISA.

[10] = Bone structural parameters after two-week daily treatment in mice (Piximus, microCT); assay type: in vivo
Protocol: FIG. 31 is a set of images showing the effects of two-week daily treatment of R^0 and RG ligands on trabecular and cortical bone structure in mice. Mice (C57BL/6, males, 3 months) were treated (i.v.) with either vehicle, rPTH(1-34) (SEQ ID NO:130), M-PTH(1-34) (SEQ ID NO:12), or E^18,A^22,L^25,K^26 (EALK)PTHrP(1-30) (SEQ ID NO:90) (5 nmol/kg; n=7 group), daily for 14 days, and femurs were analyzed by μCT.
As described above, mice were treated intravenously) with either vehicle, rPTH(1-34), M-PTH(1-34), or EALK-PTHrP(1-30) daily for 14 days.

[11] = Table 2, read-out: SaOS camp EC50
[12] = Table 2, read-out: MC3T3-E1 cAMP EC50
[13] = Table 3, read-out: dose-response cAMP in MC3T3-E1 (EC50)
[14] = Table 2, read-out: RG binding affinity hPTHR IC50
[15] = Piximus, mice, 5 nmol/kg i.v. daily 14 days

- EC50 [1, 11]: 0.002 nM
- EC50 ([1]; Table 3, read-out: dose-response cAMP in SaOS (EC50)): 0.002 nM
- EC50 [2, 12]: 0.054 nM
- EC50 [2, 13]: 0.054 nM
- IC50 [3, 14]: 0.04 nM
- R0/RG selectivity ([4]; Table 2): 6971
- IC50 ([4]; Table 2, read-out: R^0 binding affinity hPTHR IC50): 310 nM
- cAMP in HKRK-B7 cells Max [6]: 56.4 pm/well
Structure (SMILES): CC[C@H](C)[C@H](NC(=O)[C@H](CC(C)C)NC(=O)[C@H](CCCCN)NC(=O)[C@H](CC(C)C)NC(=O)[C@H](CC(C)C)NC(=O)[C@H](Cc1ccccc1)NC(=O)[C@H](C)NC(=O)[C@H](CCCNC(=N)N)NC(=O)[C@H](CCCNC(=N)N)NC(=O)[C@H](CCCNC(=N)N)NC(=O)[C@H](C)NC(=O)[C@H](CC(=O)O)NC(=O)[C@H](CCC(N)=O)NC(=O)[C@@H](NC(=O)[C@H](CO)NC(=O)[C@H](CCCCN)NC(=O)CNC(=O)[C@H](CCCCN)NC(=O)[C@H](CC(=O)O)NC(=O)[C@H](Cc1c[nH]cn1)NC(=O)[C@H](CC(C)C)NC(=O)[C@H](CC(C)C)NC(=O)[C@H](CCC(N)=O)NC(=O)[C@H](Cc1c[nH]cn1)NC(=O)[C@H](CCC(=O)O)NC(=O)[C@H](CO)NC(=O)[C@@H](NC(=O)[C@H](C)N)C(C)C)[C@@H](C)CC)C(N)=O [A18, 22, L25, K26-PTHrP(1-28)NH, A18,22,L25,K26-PTHrP(1-28)] (H-AVSEHQLLHDKGKSIQDARRRAFLLKLI-NH2; N-terminus assumed)
- cAMP-inducing activity compared with parent, in words [1]: Marked enhancements of cAMP-inducing activity
- cAMP potency and RG binding affinity compared with PTH(1-34), in words [3]: cAMP potency and RG binding affinity that is greater than that of PTH(1-34)
- screen cAMP (% parent) [5]: 305 % parent
- plasma cAMP 10 minutes after injection, in words [7]: Marked enhancements

- EC50 [1, 11]: 0.063 nM
- EC50 [2, 12]: 0.059 nM
- EC50 [2, 13]: 0.059 nM
- IC50 [3, 14]: 0.08 nM
- IC50 ([3]; Table 4, human PTH1 receptor, read-out: RG binding IC50): 0.08 nM
- R0/RG selectivity ([4]; Table 2): 11169
- IC50 ([4]; Table 4, human PTH1 receptor, read-out: R0 binding IC50): 945 nM
- R0/RG ratio ([4]; human PTH receptor on COS-7 cell membranes): 11813
Structure (SMILES): CC[C@H](C)[C@H](NC(=O)[C@H](CC(C)C)NC(=O)[C@H](CCCCN)NC(=O)[C@H](CC(C)C)NC(=O)[C@H](CC(C)C)NC(=O)[C@H](Cc1ccccc1)NC(=O)[C@H](C)NC(=O)[C@H](CCCNC(=N)N)NC(=O)[C@H](CCCNC(=N)N)NC(=O)[C@H](CCCNC(=N)N)NC(=O)[C@H](CCC(=O)O)NC(=O)[C@H](CC(=O)O)NC(=O)[C@H](CCC(N)=O)NC(=O)[C@@H](NC(=O)[C@H](CO)NC(=O)[C@H](CCCCN)NC(=O)CNC(=O)[C@H](CCCCN)NC(=O)[C@H](CC(=O)O)NC(=O)[C@H](Cc1c[nH]cn1)NC(=O)[C@H](CC(C)C)NC(=O)[C@H](CC(C)C)NC(=O)[C@H](CCC(N)=O)NC(=O)[C@H](Cc1c[nH]cn1)NC(=O)[C@H](CCC(=O)O)NC(=O)[C@H](CO)NC(=O)[C@@H](NC(=O)[C@H](C)N)C(C)C)[C@@H](C)CC)C(=O)N[C@@H](C)C(=O)N[C@@H](CCC(=O)O)C(N)=O [E18, A22, L25, K26-PTHrP(1-30)NH, E18,A22,L25,K26-PTHrP(1-30)] (H-AVSEHQLLHDKGKSIQDERRRAFLLKLIAE-NH2; N-terminus assumed)
- ionized calcium response, in words [8]: similar, if not lower, than that of PTH(1-34)
- effect on bone turnover markers, in words [9]: increased bone formation markers, with relatively smaller effects on the resorption marker
- Lumbar Spine BMD [10, 15]: 0.0464 ± 0.0002 g/cm^2
- Total Femur BMD [10, 15]: 0.620 ± 0.0003 g/cm^2
- effect on trabecular/cortical bone and BMD, in words ([10]; mice, 5 nmol/kg i.v. daily 14 days): increased cortical bone thickness with significance in the distal femur
- Conn-Dens. ([10]; microCT distal femur): 117 ± 9 1/mm^3
- Cort Th. ([10]; microCT distal femur): 238 ± 9 μm
- Tb · N ([10]; microCT distal femur): 4.13 ± 0.16 1/mm
- Tb · Th ([10]; microCT distal femur): 57.8 ± 2.1 μm
- TbSp ([10]; microCT distal femur): 238 ± 10 μm
- TrabecularBV/TV ([10]; microCT distal femur): 16.5 ± 1.3%
- BA ([10]; microCT mid femur): 0.821 ± 0.027 mm^2
- BA/TA ([10]; microCT mid femur): 40.3 ± 0.6%
- Cort Th. ([10]; microCT mid femur): 176 ± 4 μm
- MA ([10]; microCT mid femur): 1.21 ± 0.03 mm^2
- TA ([10]; microCT mid femur): 2.03 ± 0.06 mm^2
